ChEMBL document CHEMBL1152514, “Anti-tumor-initiating effects of phenolic compounds isolated from the bark of Picea jezoensis var. jezoensis” (2009)
Calls of active or inactive are those of the source. No cut-off for these calls is given here.

Test system: not listed separately
Assay: Anticancer activity against peroxynitrite/TPA-induced skin cancer in ICR mouse assessed as occurrence of papilloma at 0.187 mg/day, po administered for 2 weeks measured on week 11
Format: functional

| Structure (SMILES) | Activity [%] |
| --- | --- |
| Oc1cc(O)cc([C@H]2c3c(cc(O)c4c3O[C@H](c3ccc(O)c(O)c3)[C@@H](O)C4)O[C@@H]2c2ccc(O)c(O)c2)c1 [JEZONOCINOL B] | 27 |

Test system: Mus musculus
Assay: Anticancer activity against peroxynitrite/TPA-induced skin cancer in ICR mouse assessed as delay in tumor promotion at 0.187 mg/day, po administered for 2 weeks
Format: functional, organism-based

| Structure (SMILES) | Activity |
| --- | --- |
| Oc1cc(O)cc([C@H]2c3c(cc(O)c4c3O[C@H](c3ccc(O)c(O)c3)[C@@H](O)C4)O[C@@H]2c2ccc(O)c(O)c2)c1 [JEZONOCINOL B] | Active |

Test system: not listed separately
Assay: Anticancer activity against peroxynitrite/TPA-induced skin cancer in ICR mouse assessed as average number of papilloma per mouse at 0.187 mg/day, po administered for 2 weeks measured on week 20
Format: functional

| Structure (SMILES) | Activity |
| --- | --- |
| Oc1cc(O)cc([C@H]2c3c(cc(O)c4c3O[C@H](c3ccc(O)c(O)c3)[C@@H](O)C4)O[C@@H]2c2ccc(O)c(O)c2)c1 [JEZONOCINOL B] | 3.1 |

Test system: not listed separately
Assay: Antitumor initiating activity in human Chang cells assessed as ratio of inhibition of cellular transformation in presence of NOR1 to compound and NOR1 at 350 nmol treated 1 min before NOR1 addition measured after 1 hr by light microscopy
Format: functional

| Structure (SMILES) | Ratio |
| --- | --- |
| CC(C)c1cc2c(cc1O)[C@@]1(C)CCC[C@@](C)(C(=O)O)[C@@H]1CC2 | 2 |
| COc1cc([C@H]2c3cc(O)c(OC)cc3C[C@@H](CO)[C@@H]2CO)ccc1O [ISOLARICIRESINOL] | 2 |
| CC(=O)Oc1cc(OC(C)=O)c2c(c1)[C@@H]1C3C(=CC(=O)C[C@H]1c1ccc(OC(C)=O)c(OC(C)=O)c1)O[C@H](c1ccc(OC(C)=O)c(OC(C)=O)c1)[C@@H](O)[C@H]23 (stereo not given in full) | 1.8 |
| COc1cc(/C=C/C(=O)CC(=O)/C=C/c2ccc(O)c(OC)c2)ccc1O [CURCUMIN] | 2.1 |
| Oc1cc(O)cc(/C=C/c2ccc3c(c2)O[C@H](c2ccc(O)c(O)c2)[C@@H](c2cc(O)cc(O)c2)O3)c1 [CASSIGAROL E] | 2.1 |
| CC(=O)Oc1cc(/C=C/c2ccc3c(c2)O[C@H](c2ccc(OC(C)=O)c(OC(C)=O)c2)[C@@H](c2cc(OC(C)=O)cc(OC(C)=O)c2)O3)cc(OC(C)=O)c1 | 1.8 |
| O=C1C=C(/C=C/c2ccc(O)c(O)c2)[C@@H]2C(=O)[C@H]1[C@H](c1ccc(O)c(O)c1)[C@H]2c1cc(O)cc(O)c1 [JEZONODIONE] | 2.2 |
| Oc1cc(O)cc([C@H]2c3c(/C=C/c4ccc(O)c(O)c4)cc(O)cc3O[C@@H]2c2ccc(O)c(O)c2)c1 [TRANS-SCIRPUSIN B] | 2.2 |
| COc1cc([C@@H]2Oc3c(OC)cc(CCCO)cc3[C@H]2CO)ccc1O [DIHYDRODEHYDRODICONIFERYL ALCOHOL] | 1.8 |
| CC(=O)Oc1cc(OC(C)=O)cc([C@H]2c3c(/C=C/c4ccc(OC(C)=O)c(OC(C)=O)c4)cc(OC(C)=O)cc3O[C@@H]2c2ccc(OC(C)=O)c(OC(C)=O)c2)c1 | 1.9 |
| COc1cc([C@H]2Oc3cc(C(=O)O)ccc3O[C@@H]2CO)ccc1O [3-O-METHYL ISOAMERICANOIC ACID A] | 1.7 |
| Oc1ccc(/C=C/c2cc(O)cc3c2[C@H](c2cc(O)cc(O)c2)[C@@H](c2ccc(O)c(O)c2)O3)cc1 [SCIRPUSIN A] | 2 |
| O=c1c(O)c(-c2ccc(O)c(O)c2)oc2cc(O)cc(O)c12 [QUERCETIN] | 2.9 |
| Oc1cc(O)cc([C@H]2c3c(cc(O)c4c3O[C@H](c3ccc(O)c(O)c3)[C@@H](O)C4)O[C@@H]2c2ccc(O)c(O)c2)c1 [JEZONOCINOL B] | 2.7 |
| Oc1cc(O)cc([C@@H]2c3c(cc(O)c4c3O[C@H](c3ccc(O)c(O)c3)[C@@H](O)C4)O[C@H]2c2ccc(O)c(O)c2)c1 [JEZONOCINOL A] | 2.7 |
| O=C(O)c1ccc(O)c(O)c1 [PROTOCATECHUIC ACID] | 1.8 |
| O=C1C=C2O[C@H](c3ccc(O)c(O)c3)[C@@H](O)[C@@H]3c4c(O)cc(O)cc4[C@H](C23)[C@H](c2ccc(O)c(O)c2)C1 (stereo not given in full) [JEZONOCINOL C] | 2.3 |
| CC(=O)Oc1cc(OC(C)=O)cc([C@H]2c3c(cc(OC(C)=O)c4c3O[C@H](c3ccc(OC(C)=O)c(OC(C)=O)c3)[C@@H](O)C4)O[C@@H]2c2ccc(OC(C)=O)c(OC(C)=O)c2)c1 | 1.9 |
| Oc1cc2c3c(c4cc(O)cc5c4c(c3c1)[C@@H](c1ccc(O)c(O)c1)O5)[C@@H](c1ccc(O)c(O)c1)O2 [JEZONOFOL] | 2.3 |
| CC(=O)Oc1cc(OC(C)=O)cc([C@@H]2c3c(cc(OC(C)=O)c4c3O[C@H](c3ccc(OC(C)=O)c(OC(C)=O)c3)[C@@H](O)C4)O[C@H]2c2ccc(OC(C)=O)c(OC(C)=O)c2)c1 | 1.9 |
| CC(=O)Oc1ccc(/C=C/c2cc(OC(C)=O)cc3c2[C@H](c2cc(OC(C)=O)cc(OC(C)=O)c2)[C@@H](c2ccc(OC(C)=O)c(OC(C)=O)c2)O3)cc1 | 1.8 |
| O=Cc1ccc(O)c(O)c1 [PROTOCATECHUALDEHYDE] | 1.8 |
| COc1cc(/C=C2/C(=O)O[C@H](c3ccc(O)c(O)c3)[C@H]2c2cc(O)cc(O)c2)ccc1O [JEZONOLIDE] | 2.1 |
| O=C(O)/C=C/c1ccc(O)cc1 [COUMARIC ACID] | 1.9 |
| Oc1cc(O)cc(/C=C/c2ccc(O)c(O)c2)c1 [PICEATANNOL] | 2 |
| O=C1c2c(O)cc(O)cc2O[C@H](c2ccc(O)c(O)c2)[C@H]1O [(+)-TAXIFOLIN] | 2.5 |
| COc1cc(C[C@H]2CO[C@H](c3ccc(O)c(OC)c3)[C@H]2CO)ccc1O [LARICIRESINOL] | 2 |
